This is an account of results in ChEMBL document CHEMBL4825679, “Water-Soluble Heliomycin Derivatives to Target i-Motif DNA” (J Nat Prod, 2021).

The structures appear in SMILES notation. pIC50: −log10 of the molar value. Activity calls are given as the source filed them. The rule behind the calls is not given here.

The subject of one experiment is L1210. Nature of the experiment: cells. The conditions noted are these: Mus musculus, L1210, 72 h.
The subject of the next experiment is HeLa. Nature of the experiment: cells. The conditions noted are these: Homo sapiens, 72 h.
The species named for experiment [1] is Homo sapiens. Nature of the experiment: Binding affinity to HIF1A DNA (unknown origin) assessed as stabilization of DNA by measuring change in melting temperature at 1 uM by FRET analysis.
A further experiment deals with CCRF-CEM. Nature of the experiment: cells. The conditions noted are these: Homo sapiens, 72 h.
The species entered for experiment [2] is Homo sapiens. Nature of the experiment: Binding affinity to human TeloC DNA assessed as stabilization of DNA by measuring change in melting temperature at 1 uM by FRET analysis.
Experiment [3] is described as follows: Binding affinity to NASG DNA (unknown origin) assessed as stabilization of DNA by measuring change in melting temperature at 1 uM by FRET analysis.
The species named for experiment [4] is Homo sapiens. In words: Binding affinity to DAP DNA (unknown origin) assessed as stabilization of DNA by measuring change in melting temperature at 1 uM by FRET analysis.
For the next experiment, the system named is HMEC-1. In words: Cytotoxicity against human HMEC-1 cells assessed as growth inhibition after 72 hrs by MTT assay. Format: cell-based. To be noted: HMEC-1, 72 h.
The subject of a further experiment is DNA. Nature of the experiment: Binding affinity to double strand DNA (unknown origin) assessed as stabilization of DNA by measuring change in melting temperature at 1 uM by FRET analysis. The experiment is classed as nucleic-acid assay. The conditions noted are these: Homo sapiens.
For experiment [5], the species on record is Homo sapiens. In words: Binding affinity to ILPR DNA (unknown origin) assessed as stabilization of DNA by measuring change in melting temperature at 1 uM by FRET analysis.
A further experiment has as its system Quadruplex DNA. In words: Binding affinity to human G-quadruplex TeloG DNA assessed as stabilization of DNA by measuring change in melting temperature at 1 uM by FRET analysis. Format: nucleic-acid assay.
For experiment [6], the species on record is Homo sapiens. In words: Binding affinity to cMYC DNA (unknown origin) assessed as stabilization of DNA by measuring change in melting temperature at 1 uM by FRET analysis.

Description for CCRF-CEM: Antiproliferative activity against human CEM cells assessed as growth inhibition after 72 hrs by MTT assay
Description for HeLa: Antiproliferative activity against human HeLa cells assessed as growth inhibition after 72 hrs by MTT assay
Description for L1210: Antiproliferative activity against mouse L1210 cells assessed as growth inhibition after 72 hrs by MTT assay

A word on the pIC50: it is the IC50 on a negative log10 scale, so that one unit is a factor of ten. Broadly, the ΔTm is the change in melting temperature against a reference sample. For the compound `COc1cc2c3c4c(c(NCCN)cc(C)c14)C(=O)c1c(O)cc(O)c(c1-3)C(=O)C2(C)C`, the pIC50 is 6.10 with L1210, 6.10 in the experiment on HeLa, 6.10 in the experiment with CCRF-CEM and 6.15 in the experiment with HMEC-1. The ΔTm in the experiment listed under Homo sapiens [1] came out at 10 °C; in [3], 4 °C; in the experiment on DNA, 6 °C; in the experiment filed under Homo sapiens [5] it was 17 °C; with Quadruplex DNA it was 5 °C; in the experiment filed under Homo sapiens [6], 25 °C. Further, the outcome in the experiment filed under Homo sapiens [2] and in the experiment filed under Homo sapiens [4] was inactive.

Turning to `Cc1cc(NCCN)c2c3c4c(cc(O)c13)C(C)(C)C(=O)c1c(O)cc(O)c(c1-4)C2=O`, the pIC50 is 6.70 in the experiment with L1210, 5.80 in the experiment with HeLa, 5.68 with CCRF-CEM and 5.92 in the experiment with HMEC-1.

Regarding `COc1cccc2c1C(=O)c1c(O)c3c(c(O)c1C2=O)C[C@@](O)(C(=O)CO)C[C@@H]3O[C@H]1C[C@H](N)[C@H](O)[C@H](C)O1` [DOXORUBICIN], the pIC50 with HMEC-1 is 7.00.
